In US10464906B2, “Crystalline forms of a histone deacetylase inhibitor” (Acetylon Pharmaceuticals, Inc., priority 2015, dated 2019):

What was measured:
Type in all cases: physicochemical
[1] = Form change on heating or on storage at room temperature, XRPD
[2] = Stability of crystalline forms under dry (vacuum, 45° C.) and humid (RH >95%) conditions, XRPD; details: for XRPD pattern after drying at 45° C. (under vacuum): dried under vacuum at 45° C.; for Form change after exposing the dried sample to high humidity conditions (XRPD): after drying at 45° C. under vacuum, then high humidity (RH >95%)
Protocol: For dry conditions, the sample was dried under vacuum at 45° C. followed by XRPD analysis. Later the sample was subjected to high humidity conditions (RH >95%) followed by XRPD analysis.
The MeOH and DCM solvates of Compound (I) were dried on XRPD plates under vacuum at 45° C. and were analyzed by XRPD the following day.
Pattern E was dried at 45° C. under vacuum overnight and analyzed by XRPD. The following day, it was subjected to high humidity conditions (>95%) and later analyzed by XRPD the next day. […] FIG. 26 illustrates the XRPD comparison of dried and humid samples with Compound (I), Form I, Pattern A.

[3] = Dynamic vapor sorption (DVS) with post-DVS XRPD; details: for Post DVS XRPD (crystalline form after DVS): XRPD of the post-DVS sample
Protocol: Samples were analyzed using an Aquadyne DVS-2 gravimetric water sorption analyzer. The relative humidity was adjusted between 2-95% and the weight of the sample was continuously monitored and recorded with respect to the relative humidity and time.
The material was subjected under Dynamic Vapor Sorption (DVS, FIG. 6).

[4] = exposed to high humidity conditions

Row | SMILES | XRPD pattern after drying at 45° C. (under vacuum) [2] | Post DVS XRPD (crystalline form after DVS) [3] | Weight change (DVS) [3, 4] | Form change after exposing the dried sample to high humidity conditions (XRPD) [2] | further results
1 | O=C(CCCCCCNC(=O)c1cnc(N(c2ccccc2)c2ccccc2Cl)nc1)NO [Form II, 2-((2-chlorophenyl)(phenyl)amino)-N-(7-(hydroxyamino)-7-oxoheptyl)pyrimidine-5-carboxamide] | Pattern D, | Pattern D, | < 1% | – | XRPD pattern after heating ([1]; 130° C. for 30 minutes): Pattern A; XRPD pattern after drying at 45° C. (under vacuum) ([2]; listed as Pattern B): Pattern D; Post DVS XRPD (crystalline form after DVS) ([3]; listed as Pattern B): Pattern D
2 | O=C(CCCCCCNC(=O)c1cnc(N(c2ccccc2)c2ccccc2Cl)nc1)NO [Form VII, 2-((2-chlorophenyl)(phenyl)amino)-N-(7-(hydroxyamino)-7-oxoheptyl)pyrimidine-5-carboxamide] | Form VIII (Pattern H) | Pattern H, | – | no further form change | XRPD pattern after drying at 45° C. (under vacuum) ([2]; listed as Pattern G): Pattern H; Post DVS XRPD (crystalline form after DVS) ([3]; listed as Pattern G): Pattern H
3 | O=C(CCCCCCNC(=O)c1cnc(N(c2ccccc2)c2ccccc2Cl)nc1)NO [Form IX, 2-((2-chlorophenyl)(phenyl)amino)-N-(7-(hydroxyamino)-7-oxoheptyl)pyrimidine-5-carboxamide] | Pattern D (Form IV) | Pattern D, | – | – | XRPD pattern after drying at 45° C. (under vacuum) ([2]; listed as Pattern I): Pattern D; Post DVS XRPD (crystalline form after DVS) ([3]; listed as Pattern I): Pattern D
4 | O=C(CCCCCCNC(=O)c1cnc(N(c2ccccc2)c2ccccc2Cl)nc1)NO [Pattern J] | Pattern A | – | – | – | XRPD pattern after storage ([1]; room temperature, reanalyzed after three days): Pattern A
5 | O=C(CCCCCCNC(=O)c1cnc(N(c2ccccc2)c2ccccc2Cl)nc1)NO [Form III, 2-((2-chlorophenyl)(phenyl)amino)-N-(7-(hydroxyamino)-7-oxoheptyl)pyrimidine-5-carboxamide] | Pattern D, | Pattern D, | around 1.5% | – | XRPD pattern after drying at 45° C. (under vacuum) ([2]; listed as Pattern C): Pattern D; Post DVS XRPD (crystalline form after DVS) ([3]; listed as Pattern C): Pattern D
6 | O=C(CCCCCCNC(=O)c1cnc(N(c2ccccc2)c2ccccc2Cl)nc1)NO [Form V, 2-((2-chlorophenyl)(phenyl)amino)-N-(7-(hydroxyamino)-7-oxoheptyl)pyrimidine-5-carboxamide] | Form VI, Pattern F | Pattern F, Form VI | – | no further form change | XRPD pattern after drying at 45° C. (under vacuum) ([2]; listed as Pattern E): Pattern F (Form VI); Post DVS XRPD (crystalline form after DVS) ([3]; listed as Pattern E): Pattern F; Moisture uptake (DVS) [3, 4]: < 0.15%
